Experimental data from ChEMBL document CHEMBL4433235, “Discovery of piperazic acid peptide deformylase inhibitors with in vivo activity for respiratory tract and skin infections” (Bioorg Med Chem Lett, 2019).
In brackets after ≈: the same amount, converted by molar mass.

Experiments:
Peptide deformylase [1] = target: T1, Peptide deformylase (Staphylococcus aureus, UniProt P68826); experiment: Inhibition of Staphylococcus aureus PDF by absorbance detection assay
T1 sequence (P68826 whole entry): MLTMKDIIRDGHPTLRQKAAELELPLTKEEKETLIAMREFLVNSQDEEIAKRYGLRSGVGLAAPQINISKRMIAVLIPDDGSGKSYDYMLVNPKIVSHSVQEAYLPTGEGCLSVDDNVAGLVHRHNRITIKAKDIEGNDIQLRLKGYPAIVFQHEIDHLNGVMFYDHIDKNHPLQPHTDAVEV

[2] = Inhibition of Haemophilus influenzae PDF by absorbance detection assay
[3] = Inhibition of Streptococcus pneumoniae PDF by absorbance detection assay
Staphylococcus aureus [4] = experiment: Antimicrobial activity against Staphylococcus aureus Oxford; type: functional
Haemophilus influenzae [5] = experiment: Antimicrobial activity against Haemophilus influenzae Q1; type: functional
Streptococcus pneumoniae [6] = experiment: Antimicrobial activity against Streptococcus pneumoniae 1629; type: functional
[7] = Chromatographic hydrophobicity index, log D of compound at pH 7.4; type: physicochemical; settings: buffer
[8] = Solubility of compound by chemiluminescent nitrogen detection assay; type: physicochemical
Peptide deformylase [9] = target: T1, Peptide deformylase; experiment: Inhibition of Staphylococcus aureus PDF by fluorescence detection assay
[10] = Inhibition of Haemophilus influenzae PDF by fluorescence detection assay
[11] = Inhibition of Streptococcus pneumoniae PDF by fluorescence detection assay
Staphylococcus aureus [12] = experiment: Antimicrobial activity against Staphylococcus aureus; type: functional
Haemophilus influenzae [13] = experiment: Antimicrobial activity against Haemophilus influenzae; type: functional
Streptococcus pneumoniae [14] = experiment: Antimicrobial activity against Streptococcus pneumoniae; type: functional
Peptide deformylase [15] = target: T2, Peptide deformylase (Escherichia coli, UniProt Q9JN24); experiment: Inhibition of Escherichia coli PDF
T2 sequence (Q9JN24 whole entry): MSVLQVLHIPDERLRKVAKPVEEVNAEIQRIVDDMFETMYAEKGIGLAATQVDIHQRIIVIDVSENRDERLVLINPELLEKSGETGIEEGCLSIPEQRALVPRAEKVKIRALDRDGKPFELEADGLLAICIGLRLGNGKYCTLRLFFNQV

Streptococcus pneumoniae [16] = experiment: Antimicrobial activity against Streptococcus pneumoniae Ery-2 in presence of clavulanic acid; type: functional
Streptococcus pneumoniae [17] = experiment: Antimicrobial activity against Streptococcus pneumoniae Ery-2 infected in respiratory tract infection rat model assessed as log reduction in bacterial CFU at 350 mg/kg, po BID dosed 1 hr post infection and measured for 96 hrs in presence of 50 mg/kg clavulanic acid; type: functional
[18] = Half life in rat at 3.9 mg/kg, iv; type: ADME, organism-based; settings: in vivo
[19] = Clearance in rat at 3.9 mg/kg, iv; type: ADME, organism-based; settings: in vivo
[20] = Volume of distribution at steady state in rat at 3.9 mg/kg, iv; type: ADME, organism-based; settings: in vivo, read-out: Vdss
[21] = AUC in rat at 3.9 mg/kg, iv; type: ADME, organism-based; settings: in vivo
[22] = Cmax in rat at 8.5 mg/kg, po; type: ADME, organism-based; design: dose 8.5 mg/kg, route oral; settings: in vivo
[23] = AUC in rat at 8.5 mg/kg, po; type: ADME, organism-based; settings: in vivo
[24] = Oral bioavailability in rat at 8.5 mg/kg; type: ADME, organism-based; settings: in vivo

With `O=CN(O)C[C@@H](CC1CCCC1)C(=O)N1NCCC[C@H]1C(=O)Nc1ccccn1` the IC50 (Peptide deformylase [1]) was 2 nM, the IC50 [2] was 3 nM and the IC50 [3] was 1 nM. The MIC (Staphylococcus aureus [4]) was 0.5 µg/mL (≈ 1.24 µM), the MIC (Haemophilus influenzae [5]) was 0.5 µg/mL (≈ 1.24 µM) and the MIC (Streptococcus pneumoniae [6]) was 1 µg/mL (≈ 2.48 µM). For the same molecule, the CHI [7] was 3.71 and the solubility kinetic [8] was over 463 µM.
In the case of `CN(C(=O)[C@@H]1CCCNN1C(=O)[C@H](CC1CCCC1)CN(O)C=O)c1ccccn1`, the IC50 (Peptide deformylase [1]) is reported as 18 nM, the IC50 [2] is reported as 15 nM and the IC50 [3] is reported as 8 nM. For the same molecule, the MIC (Staphylococcus aureus [4]) was 4 µg/mL (≈ 9.58 µM), the MIC (Haemophilus influenzae [5]) was 4 µg/mL (≈ 9.58 µM) and the MIC (Streptococcus pneumoniae [6]) was 2 µg/mL (≈ 4.79 µM). For the same molecule, the CHI [7] was 3.3 and the solubility kinetic [8] was over 657 µM.
Molecule `O=CN(O)C[C@@H](CC1CCCC1)C(=O)N1NCCC[C@H]1C(=O)Nc1cccc2c1COB2O` has an IC50 (Peptide deformylase [9]) of 158 nM, an IC50 [10] of 79 nM and an IC50 [11] of 40 nM. The MIC (Staphylococcus aureus [4]) was 2 µg/mL (≈ 4.36 µM), the MIC (Haemophilus influenzae [5]) was 0.5 µg/mL (≈ 1.09 µM) and the MIC (Streptococcus pneumoniae [6]) was 8 µg/mL (≈ 17.5 µM). The CHI [7] was 3.2 and the solubility kinetic [8] was over 544 µM.
Work on `Cc1ccc(NC(=O)[C@@H]2CCCNN2C(=O)[C@H](CC2CCCC2)CN(O)C=O)nc1` yielded an IC50 (Peptide deformylase [9]) of 2 nM, an IC50 [10] of 25 nM and an IC50 [11] of 0.6 nM. For the same molecule, the MIC (Staphylococcus aureus [4]) was 1 µg/mL (≈ 2.4 µM), the MIC (Haemophilus influenzae [5]) was 1 µg/mL (≈ 2.4 µM) and the MIC (Streptococcus pneumoniae [6]) was 2 µg/mL (≈ 4.79 µM). It also gave a CHI [7] of 4.1, a solubility kinetic [8] of over 565 µM and an MIC90 (Staphylococcus aureus [12]) of 1 µg/mL (≈ 2.4 µM). The MIC90 (Haemophilus influenzae [13]) was 4 µg/mL (≈ 9.58 µM) and the MIC90 (Streptococcus pneumoniae [14]) was 2 µg/mL (≈ 4.79 µM).
With `CCC(=O)[C@@H](NC(=O)[C@@H]1CCCNN1C(=O)[C@@H](CC(=O)O)CC(C)C)C(C)C` the Ki (Peptide deformylase [15]) was 60 nM.
With `CN(C)c1cccc(NC(=O)[C@@H]2CCCNN2C(=O)[C@H](CC2CCCC2)CN(O)C=O)n1` the IC50 (Peptide deformylase [9]) was 20 nM, the IC50 [10] was 32 nM and the IC50 [11] was 8 nM. For the same molecule, the MIC (Staphylococcus aureus [4]) was 4 µg/mL (≈ 8.96 µM), the MIC (Haemophilus influenzae [5]) was 4 µg/mL (≈ 8.96 µM) and the MIC (Streptococcus pneumoniae [6]) was 0.5 µg/mL (≈ 1.12 µM). The CHI [7] was 4.88 and the solubility kinetic [8] was over 364 µM.
`Cc1ccnc(NC(=O)[C@@H]2CCCNN2C(=O)[C@H](CC2CCCC2)CN(O)C=O)c1` gave an IC50 (Peptide deformylase [9]) of 2 nM, an IC50 [10] of 40 nM and an IC50 [11] of 0.4 nM. It also gave an MIC (Staphylococcus aureus [4]) of 1 µg/mL (≈ 2.4 µM), an MIC (Haemophilus influenzae [5]) of 2 µg/mL (≈ 4.79 µM) and an MIC (Streptococcus pneumoniae [6]) of 2 µg/mL (≈ 4.79 µM). For the same molecule, the CHI [7] was 4.05, the solubility kinetic [8] was over 565 µM and the MIC90 (Staphylococcus aureus [12]) was 1 µg/mL (≈ 2.4 µM). For the same molecule, the MIC90 (Haemophilus influenzae [13]) was 4 µg/mL (≈ 9.58 µM) and the MIC90 (Streptococcus pneumoniae [14]) was 1 µg/mL (≈ 2.4 µM).
`CN1CCN(c2cc(NC(=O)[C@@H]3CCCNN3C(=O)[C@H](CC3CCCC3)CN(O)C=O)ncn2)CC1` gave an IC50 (Peptide deformylase [9]) of 3 nM, an IC50 [10] of 25 nM and an IC50 [11] of 1 nM. For the same molecule, the MIC (Staphylococcus aureus [4]) was 0.5 µg/mL (≈ 0.995 µM), the MIC (Haemophilus influenzae [5]) was 2 µg/mL (≈ 3.98 µM) and the MIC (Streptococcus pneumoniae [6]) was 0.25 µg/mL (≈ 0.497 µM). It also gave a CHI [7] of 2.7, a solubility kinetic [8] of over 573 µM and an MIC90 (Staphylococcus aureus [12]) of 0.5 µg/mL (≈ 0.995 µM). For the same molecule, the MIC90 (Haemophilus influenzae [13]) was 2 µg/mL (≈ 3.98 µM) and the MIC90 (Streptococcus pneumoniae [14]) was 0.25 µg/mL (≈ 0.497 µM).
With `O=CN(O)C[C@@H](CC1CCCC1)C(=O)N1NCCC[C@H]1C(=O)Nc1ccc(F)cn1` the IC50 (Peptide deformylase [1]) was 2 nM, the IC50 [3] was 0.6 nM and the MIC (Staphylococcus aureus [4]) was 0.5 µg/mL (≈ 1.19 µM). It also gave an MIC (Haemophilus influenzae [5]) of 0.5 µg/mL (≈ 1.19 µM), an MIC (Streptococcus pneumoniae [6]) of 1 µg/mL (≈ 2.37 µM) and a CHI [7] of 4.13. It also gave a solubility kinetic [8] of over 739 µM, an MIC90 (Staphylococcus aureus [12]) of 1 µg/mL (≈ 2.37 µM) and an MIC90 (Haemophilus influenzae [13]) of 2 µg/mL (≈ 4.75 µM). It also gave an MIC90 (Streptococcus pneumoniae [14]) of 2 µg/mL (≈ 4.75 µM).
`CN(C)c1cc(NC(=O)[C@@H]2CCCNN2C(=O)[C@H](CC2CCCC2)CN(O)C=O)ncn1` showed an IC50 (Peptide deformylase [9]) of 1 nM, an IC50 [10] of 13 nM and an IC50 [11] of 0.3 nM. For the same molecule, the MIC (Staphylococcus aureus [4]) was 0.5 µg/mL (≈ 1.12 µM), the MIC (Haemophilus influenzae [5]) was 2 µg/mL (≈ 4.47 µM) and the MIC (Streptococcus pneumoniae [6]) was 0.5 µg/mL (≈ 1.12 µM). The CHI [7] was 3.38 and the solubility kinetic [8] was over 649 µM.
`CC1(C)S[C@@H]2[C@H](NC(=O)[C@H](N)c3ccc(O)cc3)C(=O)N2[C@H]1C(=O)O` [AMOXICILLIN] gave an MIC (Streptococcus pneumoniae [16]) of 0.03 µg/mL and an Activity (Streptococcus pneumoniae [17]) of 5.2 log10CFU/ml.
In the case of `Cc1nc(NNC(=O)[C@H](CC2CCCC2)CN(O)C=O)c(F)c(N2CCN3CCOC[C@@H]3C2)n1` [LANOPEPDEN], the IC50 (Peptide deformylase [1]) is reported as 12 nM, the IC50 [2] is reported as 3 nM and the IC50 [3] is reported as 3 nM. The MIC (Staphylococcus aureus [4]) was 2 µg/mL (≈ 4.17 µM), the MIC (Haemophilus influenzae [5]) was 0.5 µg/mL (≈ 1.04 µM) and the MIC (Streptococcus pneumoniae [6]) was 1 µg/mL (≈ 2.09 µM). For the same molecule, the CHI [7] was 2.54, the solubility kinetic [8] was 241 µM (≈ 116 µg/mL) and the MIC90 (Staphylococcus aureus [12]) was 4 µg/mL (≈ 8.34 µM). For the same molecule, the MIC90 (Haemophilus influenzae [13]) was 2 µg/mL (≈ 4.17 µM), the MIC90 (Streptococcus pneumoniae [14]) was 1 µg/mL (≈ 2.09 µM) and the half-life [18] was 42 min. The clearance [19] was 88 mL/min/kg, the Vd [20] was 2.5 L/kg and the AUC [21] was 720 ng·h/mL. The Cmax [22] was 902 ng/mL, the AUC [23] was 1450 ng·h/mL and the bioavailability [24] was 91%.
